Experimental data as given in patent US6376666B1 (Nauchno-Issledovatelsky Institut Farmakologii Rossiiskoi …, priority 1994, dated 2002).

What was measured:
cats = assay: hemodynamics and activity of intact heart in cats under anesthesia; assay type: in vivo; details: cats i.v., doses of 0,5 mg/kg-2,0 mg/kg
Method: The effects of compounds on the hemodynamics and activity of intact heart were studied in cats under anesthesia. The experiments were carried out under conditions of open chest. The phase curve of aortic blood flow was the main index of cardiac activity. The compounds were administered i.v. in physiological solution. The t-Student' test was used to estimate the statistical significance.

Balb/c mice = assay: open-field test, Balb/c mice (passive type of emotional-stress reaction); assay type: in vivo; set-up: key to Total activity: sum of all locomotor activity counts (crossings + rearings) in 3 min; details: for Central activity (crossings) / Peripheral activity (crossings) / Total activity / Number of defecations / Vertical activity (rearings): M ± mx
Method in brief: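 Male mice, 20-22 g, dosed i.p. in water 30 min before a 3-min open-field test after 1 min in darkness; peripheral, central, rearing and total activity plus defecations recorded; Student t-test. Anxiolysis read as Balb/c activation, sedation as C57B1/6 inhibition.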

CCOc1ccc2nc(SCCN3CCOCC3)[nH]c2c1 [XII, 2-[2-(Morpholino)ethylthio]-5-ethoxybenzimidazole]
effect on heart rate, in words (cats): small and short bradycardia
Central activity (crossings) (Balb/c mice; 0.001 mg/kg i.p.): 1.6 ± 1.6
Peripheral activity (crossings) (Balb/c mice; 0.001 mg/kg i.p.): 28.9 ± 8.8
Total activity (Balb/c mice; 0.001 mg/kg i.p.): 30.3 ± 9.4
Central activity (crossings) (Balb/c mice; 0.01 mg/kg i.p.): 2.6 ± 1.4
Number of defecations (Balb/c mice; 0.01 mg/kg i.p.): 3.1 ± 0.6
Peripheral activity (crossings) (Balb/c mice; 0.01 mg/kg i.p.): 79.8 ± 9.3
Total activity (Balb/c mice; 0.01 mg/kg i.p.): 83.2 ± 11.3
Vertical activity (rearings) (Balb/c mice; 0.01 mg/kg i.p.): 0.9 ± 0.6
Number of defecations (Balb/c mice; 0.05 mg/kg i.p.): 2.0 ± 0.8
Peripheral activity (crossings) (Balb/c mice; 0.05 mg/kg i.p.): 37.1 ± 6.7
Total activity (Balb/c mice; 0.05 mg/kg i.p.): 37.1 ± 6.7
Number of defecations (Balb/c mice; 0.1 mg/kg i.p.): 2.4 ± 0.7
Peripheral activity (crossings) (Balb/c mice; 0.1 mg/kg i.p.): 70.6 ± 10.6
Total activity (Balb/c mice; 0.1 mg/kg i.p.): 73.7 ± 12.7
Central activity (crossings) (Balb/c mice; 0.5 mg/kg i.p.): 2.9 ± 1.5
Number of defecations (Balb/c mice; 0.5 mg/kg i.p.): 1.6 ± 0.8
Peripheral activity (crossings) (Balb/c mice; 0.5 mg/kg i.p.): 77.6 ± 14.2
Total activity (Balb/c mice; 0.5 mg/kg i.p.): 80.5 ± 15.7
Central activity (crossings) (Balb/c mice; 1.0 mg/kg i.p.): 0.5 ± 0.3
Number of defecations (Balb/c mice; 1.0 mg/kg i.p.): 2.8 ± 0.9
Peripheral activity (crossings) (Balb/c mice; 1.0 mg/kg i.p.): 66.3 ± 11.1
Total activity (Balb/c mice; 1.0 mg/kg i.p.): 66.8 ± 11.4
Central activity (crossings) (Balb/c mice; 5.0 mg/kg i.p.): 2.3 ± 1.5
Number of defecations (Balb/c mice; 5.0 mg/kg i.p.): 0.8 ± 0.5
Peripheral activity (crossings) (Balb/c mice; 5.0 mg/kg i.p.): 43.0 ± 4.4
Total activity (Balb/c mice; 5.0 mg/kg i.p.): 45.3 ± 5.9
Central activity (crossings) (Balb/c mice; 10.0 mg/kg i.p.): 0.9 ± 0.3
Number of defecations (Balb/c mice; 10.0 mg/kg i.p.): 2.0 ± 0.7
Peripheral activity (crossings) (Balb/c mice; 10.0 mg/kg i.p.): 54.8 ± 8.3
Total activity (Balb/c mice; 10.0 mg/kg i.p.): 55.7 ± 8.6
Central activity (crossings) (Balb/c mice; 30.0 mg/kg i.p.): 1.1 ± 0.7
Number of defecations (Balb/c mice; 30.0 mg/kg i.p.): 4.5 ± 1.4
Peripheral activity (crossings) (Balb/c mice; 30.0 mg/kg i.p.): 50.5 ± 7.9
Total activity (Balb/c mice; 30.0 mg/kg i.p.): 51.7 ± 8.7
Vertical activity (rearings) (Balb/c mice; 30.0 mg/kg i.p.): 0.1 ± 0.1
Number of defecations (Balb/c mice; 50.0 mg/kg i.p.): 1.6 ± 0.5
Peripheral activity (crossings) (Balb/c mice; 50.0 mg/kg i.p.): 11.0 ± 1.6
Total activity (Balb/c mice; 50.0 mg/kg i.p.): 11.0 ± 1.6
effect on the behavior (locomotor activity) of Balb/c mice in open-field test, in words (Balb/c mice; i.p., screening): able to activate the behavior of Balb/c mice
